Experimental data: paper PMC9181887, “In Vitro Antithrombotic, Hematological Toxicity, and Inhibitor Studies of Protocatechuic, Isovanillic, and p-Hydroxybenzoic Acids from Maclura tricuspidata (Carr.) Bur” (Molecules, 2022)
Like-named read-outs stand apart in the source and are kept apart here.

Columns and labels:
platelets = assay: Hematological study, platelet count by hemocytometer; format: cell-based; details: 10 min, vs control
Method: (§1) Figure 1 Blood cytotoxic effect of PA (A), IVA (B), and 4-HA (C). Aliquots of washed platelets (10^3/mL), erythrocytes (10^6/mL), and leukocytes (10^3/mL) were treated with or without the compounds for 10 min and cell number was determined by hemocytometer counts. Each value is the mean ± SD of triplicate measurements. * p < 0.05 and ** p < 0.01, compared to each control groups. 10–500, 10–100 μg of each compound treated.
(§2) Total white blood cells (leukocytes) and red blood cells (erythrocytes) were counted using a hemocytometer, as previously described. Blood was diluted 1:200 with Hayem’s fluid and the cells were counted in a loaded hemocytometer chamber. To count the blood platelets, blood was diluted in a ratio of 1:20 with a diluting fluid, and four large (1 mm^2) corner squares of the hemocytometer were counted under a light microscope. Aliquots of leukocytes (0.1 mL; 10^3/mL), erythrocytes (0.1 mL; 10^6/mL), and platelets (0.1 mL; 10^3/mL) were treated with or without the compounds for 10 min.

leukocytes = assay: Hematological study, leukocyte count by hemocytometer; format: cell-based; details: 10 min, vs control
Method: as §1, §2

human plasma [1] = assay: Coagulation assay, PT; format: biochemical; details: 50–100 μg
Method: (§3) A coagulation assay was performed to evaluate the prolongation potential of the compounds in blood coagulation by measuring APTT, PT, and TT, as previously described. After pretreatment of the compounds with human plasma for 10 min, APTT, PT, and TT were determined by a coagulometer (Thrombostat 1) manufactured by Behnk Elektronik, Germany.

human plasma [2] = assay: Coagulation assay, TT; format: biochemical; details: 50–100 μg
Method: as §3

platelet aggregation [3] = tested on: platelet aggregation; design: method as in PMID 20824965, PMID 9869276; details: sodium arachidonate-induced platelet aggregation; cited from earlier work
platelet aggregation [4] = tested on: platelet aggregation; design: method as in PMID 20824965, PMID 9869276; details: ADP or collagen-induced platelet aggregation; cited from earlier work
diabetic rats = tested on: diabetic rats; design: method as in PMID 20824965, PMID 9869276; details: cited from earlier work
erythrocytes = assay: Hematological study, erythrocyte count by hemocytometer; format: cell-based; details: up to 200 μg/mL, 10 min, vs control
Method: as §1, §2

Row | SMILES | effect on platelet number (platelets; 10–50 μg/mL) | effect on leukocyte number (leukocytes; 10–50 μg/mL) | PT, fold of control (human plasma [1]) | prothrombin time (PT) (human plasma [1]; control 20.8 ± 0.7 s, p < 0.05) | TT, fold of control (human plasma [2]) | thrombin time (TT) (human plasma [2]; control 9.4 ± 0.2 s, p < 0.01) | IC50 (platelet aggregation [3]) | IC50 (platelet aggregation [4]) | plasma glucose levels (diabetic rats) | effect on the number of erythrocytes (erythrocytes) | effect on platelet number (platelets; 10–100 μg/mL) | effect on leukocyte number (leukocytes; 10–100 μg/mL)
1 | O=C(O)c1ccc(O)cc1 [4-HA, 4-hydroxybenzoic acid] | did not cause any effect | did not cause any effect | 1.25–1.26 fold | 25.9 to 26.2 s | 1.14–1.15 fold | 10.7 to 10.8 s | 300 µM | 1000 to 3400 µM | reducing plasma glucose levels in a dose-dependent manner |  |  | 
2 | O=C(O)c1ccc(O)c(O)c1 [PA, protocatechuic acid] |  |  |  |  |  |  |  |  |  | did not show any effect | did not cause any effect | did not cause any effect
3 | COc1ccc(C(=O)O)cc1O [IVA, isovanillic acid] | did not cause any effect | did not cause any effect |  |  |  |  |  |  |  | did not show any effect |  | 
